Test results reported in BigSolDB 2.1.

O=P(c1ccccc1)(c1ccccc1)c1ccccc1
Conditions | solubility (mole fraction)
in benzene, 293.78 K | 0.055
in benzene, 303.04 K | 0.0747
in benzene, 314.12 K | 0.0963
in benzene, 323.34 K | 0.123
in benzene, 333.45 K | 0.152
in ethyl acetate, 294.54 K | 0.023
in ethyl acetate, 299.09 K | 0.0275
in ethyl acetate, 303.3 K | 0.0305
in ethyl acetate, 308.27 K | 0.0348
in ethyl acetate, 313.72 K | 0.0409
in ethyl acetate, 318.32 K | 0.0496
in ethyl acetate, 323.21 K | 0.0555
in ethyl acetate, 328.65 K | 0.0659
in toluene, 294.42 K | 0.0291
in toluene, 298.74 K | 0.0346
in toluene, 303.15 K | 0.0396
in toluene, 308.36 K | 0.0487
in toluene, 313.53 K | 0.0548
in toluene, 317.97 K | 0.0666
in toluene, 323.13 K | 0.0768
in toluene, 328.42 K | 0.0882
in toluene, 333.77 K | 0.0998
